Assay [1] deals with T1, human full length PIK3KA H1047R mutant (p110α/p85α complex) (Homo sapiens, UniProt P42336, H1047R).
T1 construct: Recombinant, catalytically active human full length PIK3KA Wild-type and H1047R mutant were purchased as 1:1 complex; 6xHis (N); purchased EMD Millipore Sigma 14-792M
The assay is described as follows: PI3K-alpha kinase (PIK3CA) biochemical activity, H1047R mutant, ADP-Glo. As to conditions: for IC50: PI3K-α (PIK3CA) biochemical, H1047R mutant. An excerpt: (§1) PI3K-Alpha Kinase (PIK3CA) Activity, Wild-Type and H1047R Mutant and Determining IC50 Values for Inhibitors
(§2) Recombinant, catalytically active human full length PIK3KA Wild-type and H1047R mutant were purchased as 1:1 complex of N-terminal 6× his tagged p110α (catalytic) and untagged p85α (regulatory subunit) from EMD Millipore Sigma (cat. no. 14-602M and 14-792M, respectively). PIP2diC8 (Avanti Polar Lipids Inc., cat. no. 850185) or Soy PI (Avanti Polar Lipids Inc., cat. No. 840044P) was used as lipid substrate. PIP2diC8 or PI lyophilized powder was dissolved in milliQ water to a concentration of 1 mM just before use. 10 mM stock compounds in DMSO were serially diluted 1:3 to generate a 10-point curve and plated using an acoustic liquid handler system (Echo 550 series instrument, Labcyte). A 10× intermediate compound plate (200 uM starting compound concentration and 10% DMSO) was prepared before starting the reaction. A typical reaction mixture (50 uL) comprised 40 mM HEPES buffer, pH 7.4, 25 mM MgCl2, 0.01% v/v triton-X-100, 1% v/v DMSO, 20 mM NaCl, 1-5 nM WT or H1047R PI3K protein, 20 uM ATP, and 50 uM PIP2diC8 or Soy PI. 1% DMSO buffer alone without test compound was employed as MAX control (full activity in the absence of any inhibitor), and no enzyme control was used to determine the level of background Adenosine 5′-diphosphate (ADP) (MIN control). First, Wild-type (WT) and H1047R mutant protein in kinase buffer with all components except ATP were incubated with or without compound at 27° C. for 1 h. After the pre-incubation, the reaction was initiated by the addition of 20 uL of 50 uM ATP (20 uM final concentration). The reaction was allowed to proceed until about 10% conversion of ATP (2 uM ADP) at 27° C. After that time, 5 uL of reaction was mixed with 5 uL of ADP-Kinase Glo Reagent (ADP-Glo Kinase assay kit, Promega cat. no. V9102) supplemented with MgCl2 10 mM to stop the reaction and deplete the remaining ATP for 40 min at room temperature. Then, 10 uL of Kinase Detection Reagent (ADP-Glo Kinase assay kit, Promega cat. no. V9102) was added to simultaneously convert ADP to ATP and allow the newly synthesized ATP to be measured using a luciferase/luciferin reaction. After 30 min at room temperature the light generated was measured using a luminometer (EnVision plate reader, Perkin Elmer). Process data through Genedata-Screener tool. Relative IC50 values are determined using luminescence units by calculating percent inhibition with respect to on-plate “MIN” and “MAX” controls. Data was analyzed using a 4-parameter nonlinear logistic equation (four-parameter logistic concentration-response curve): Y=bot+[(top−bot)/1+(x/IC50)slope] where Y=% inhibition, X=concentration yielding y % inhibition, Bottom=minimum value of y attained by curve, Top=maximum value of y attained by curve and Slope=steepness of curve at IC50. % Inh=[(median Max−x/median Max−median Min)]·100 IC50: concentration of compound that reduces a given response (ligand binding, enzyme response) by 50%. IC50 relative: concentration giving half the compound's maximum response.
(§3) For IC50 values shown in Table A, “A” means IC50<0.5 μM; “B” means IC50 ranging between 0.5 μM and 1.0 μM; “C” means IC50 ranging between 1 μM and 5 μM; “D” means IC50 ranging between 5 μM and 10 μM; “E” means IC50>10 μM.
In general terms: In ADP-Glo the light output rises with the ADP produced.

Assay [2] addresses T2, human full length PIK3KA Wild-type (p110α/p85α complex) (Homo sapiens, UniProt P42336).
T2 construct: Recombinant, catalytically active human full length PIK3KA Wild-type and H1047R mutant were purchased as 1:1 complex; 6xHis (N); purchased EMD Millipore Sigma 14-602M
The assay is described as follows: PI3K-alpha kinase (PIK3CA) biochemical activity, wild-type, ADP-Glo. As to conditions: PI3K-α (PIK3CA) biochemical.
Text: as §1, §2, §3

[3] abbreviates: PIP2diC8 lipid substrate (footnote 1).

For orientation: IC50 means the midpoint of a concentration-inhibition curve.

T1 sequence (P42336 whole entry H1047R): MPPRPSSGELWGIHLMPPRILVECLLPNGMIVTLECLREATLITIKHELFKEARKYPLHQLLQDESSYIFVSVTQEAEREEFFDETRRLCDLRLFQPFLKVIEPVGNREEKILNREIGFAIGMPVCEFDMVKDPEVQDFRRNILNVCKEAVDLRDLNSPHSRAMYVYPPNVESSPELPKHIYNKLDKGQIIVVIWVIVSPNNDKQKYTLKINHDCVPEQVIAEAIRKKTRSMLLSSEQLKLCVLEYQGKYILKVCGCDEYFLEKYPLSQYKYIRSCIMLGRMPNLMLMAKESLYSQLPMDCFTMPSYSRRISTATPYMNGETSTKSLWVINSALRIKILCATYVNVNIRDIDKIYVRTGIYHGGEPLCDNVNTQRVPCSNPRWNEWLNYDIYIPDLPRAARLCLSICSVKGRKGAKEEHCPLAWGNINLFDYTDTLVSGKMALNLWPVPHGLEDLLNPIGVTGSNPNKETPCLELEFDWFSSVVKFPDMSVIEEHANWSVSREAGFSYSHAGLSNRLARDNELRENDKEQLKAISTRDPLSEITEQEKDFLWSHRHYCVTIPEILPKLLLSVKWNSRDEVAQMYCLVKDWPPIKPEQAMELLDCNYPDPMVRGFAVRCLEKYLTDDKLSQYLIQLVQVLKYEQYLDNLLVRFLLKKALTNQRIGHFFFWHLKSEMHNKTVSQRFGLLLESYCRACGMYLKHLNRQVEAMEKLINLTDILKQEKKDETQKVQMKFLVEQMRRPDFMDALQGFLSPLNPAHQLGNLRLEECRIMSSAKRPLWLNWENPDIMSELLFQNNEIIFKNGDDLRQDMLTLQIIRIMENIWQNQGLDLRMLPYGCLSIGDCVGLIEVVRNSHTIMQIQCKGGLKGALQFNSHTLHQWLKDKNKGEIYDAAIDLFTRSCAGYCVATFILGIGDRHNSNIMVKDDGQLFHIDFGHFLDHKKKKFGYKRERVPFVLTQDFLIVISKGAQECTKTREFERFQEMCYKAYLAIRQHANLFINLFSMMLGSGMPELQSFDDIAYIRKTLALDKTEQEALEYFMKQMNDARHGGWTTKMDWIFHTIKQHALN
T1 sequence (P27986 whole entry partner): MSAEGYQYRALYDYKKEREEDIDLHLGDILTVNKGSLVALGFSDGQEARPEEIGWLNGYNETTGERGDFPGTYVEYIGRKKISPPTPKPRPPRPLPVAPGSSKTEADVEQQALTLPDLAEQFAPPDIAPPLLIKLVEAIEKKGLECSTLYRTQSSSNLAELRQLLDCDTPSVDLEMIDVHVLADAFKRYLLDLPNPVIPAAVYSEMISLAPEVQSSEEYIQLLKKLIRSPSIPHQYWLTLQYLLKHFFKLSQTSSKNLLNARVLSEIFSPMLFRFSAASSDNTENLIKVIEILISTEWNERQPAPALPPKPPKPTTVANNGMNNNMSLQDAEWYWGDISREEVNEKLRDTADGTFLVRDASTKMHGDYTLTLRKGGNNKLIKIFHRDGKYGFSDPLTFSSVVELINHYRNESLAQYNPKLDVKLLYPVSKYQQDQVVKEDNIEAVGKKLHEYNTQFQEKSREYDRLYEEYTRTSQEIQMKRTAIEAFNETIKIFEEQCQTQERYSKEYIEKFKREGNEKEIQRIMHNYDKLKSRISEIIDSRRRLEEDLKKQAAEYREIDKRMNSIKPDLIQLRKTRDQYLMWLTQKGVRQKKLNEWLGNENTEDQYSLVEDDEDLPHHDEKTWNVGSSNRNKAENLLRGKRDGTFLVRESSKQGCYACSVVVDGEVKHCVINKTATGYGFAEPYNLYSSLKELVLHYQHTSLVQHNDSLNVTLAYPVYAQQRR

Take `COc1ccc(NC(C)c2cc(C)cc3c(=O)c(C)c(-c4ccccc4)oc23)c(C(=O)O)n1` (stereo not drawn) [Example 89, 3-[1-(3,6-Dimethyl-4-oxo-2-phenyl-chromen-8-yl)ethylamino]-6-methoxy-pyridine-2-carboxylic acid 2,2,2-trifluoroacetic acid]: the IC50 in assay [1] (Soy PI lipid substrate) is under 0.5 µM; in assay [2] (Soy PI lipid substrate) it was 1 to 5 µM.

Turning to `C[C@@H](Nc1ccc(Cl)nc1C(=O)O)c1cc(C(F)(F)F)cc2c(=O)cc(-c3ccccc3)oc12` [Example 82, 6-Chloro-3-[[(1R)-1-[4-oxo-2-phenyl-6-(trifluoromethyl)-chromen-8-yl]ethyl]amino]pyridine-2-carboxylic acid], the IC50 is under 0.5 µM in assay [1] (Soy PI lipid substrate) and 1 to 5 µM in assay [2] (Soy PI lipid substrate).

With `Cc1cc(C(C)Nc2ccccc2C(=O)O)c2oc(-c3ccc(N4CCCC4)cc3)cc(=O)c2c1` (stereo not drawn) [Example 45, 2-[1-[6-Methyl-4-oxo-2-(4-pyrrolidin-1-ylphenyl)chromen-8-yl]ethylamino]benzoic acid 2,2,2-trifluoroacetic acid], the IC50 in assay [1] (Soy PI lipid substrate) is under 0.5 µM; in assay [2] (Soy PI lipid substrate), over 10 µM.

As to `Cc1cc(C(C)Nc2ccccc2C(=O)O)c2oc(-c3ccc(S(C)(=O)=O)cc3)cc(=O)c2c1` (stereo not drawn) [Example 9, 2-[1-[6-Methyl-2-(4-methylsulfonylphenyl)-4-oxo-chromen-8-yl]ethylamino]benzoic acid 2,2,2-trifluoroacetic acid], the IC50 in assay [1] (Soy PI lipid substrate) is under 0.5 µM; in assay [2] (Soy PI lipid substrate), over 10 µM.

With `Cc1cc([C@@H](C)Nc2ccc(Cl)nc2C(=O)O)c2oc(-c3ccccc3)cc(=O)c2c1` [Example 2, 6-Chloro-3-[[(1R)-1-(6-methyl-4-oxo-2-phenyl-chromen-8-yl)ethyl]amino]pyridine-2-carboxylic acid], the concentration for half-maximal inhibition (IC50) in assay [1] (Soy PI lipid substrate) and in assay [2] (Soy PI lipid substrate) was under 0.5 µM throughout.

With `Cc1cc([C@@H](C)Nc2ccccc2C(=O)O)c2oc(-c3cccc(C#N)c3)cc(=O)c2c1` [Example 16, 2-[[(1R)-1-[2-(3-Cyanophenyl)-6-methyl-4-oxo-chromen-8-yl]ethyl]amino]benzoic acid], the IC50 in assay [1] (setting [3]) is under 0.5 µM; in assay [2] (setting [3]) it was 0.5 to 1 µM.

Consider `Cc1cc(C(C)Nc2ccccc2C(=O)O)c2oc(-c3ccc(S(C)(=O)=O)cc3)cc(=O)c2c1` (single isomer, unassigned; isomer 1) [Example 47, 2-[1-[6-Methyl-2-(4-methylsulfonylphenyl)-4-oxo-chromen-8-yl]ethylamino]benzoic acid, Isomer 1], for which the IC50 in assay [1] (Soy PI lipid substrate) and in assay [2] (Soy PI lipid substrate) was over 10 µM each time.

Regarding `CC(Nc1ccccc1C(=O)O)c1c(F)c(F)cc2c(=O)cc(-c3ccccc3)oc12` (stereo not drawn) [Example 6, 2-[1-(6,7-Difluoro-4-oxo-2-phenyl-chromen-8-yl)ethylamino]benzoic acid 2,2,2-trifluoroacetic acid], the figures for the IC50 in assay [1] (setting [3]) and in assay [2] (setting [3]) were under 0.5 µM and 1 to 5 µM, respectively.

Turning to `Cc1cc([C@@H](C)Nc2ccccc2C(=O)O)c2oc(-c3ccc(F)cc3F)cc(=O)c2c1` [Example 57, 2-[[(1R)-1-[2-(2,4-Difluorophenyl)-6-methyl-4-oxo-chromen-8-yl]ethyl]amino]benzoic acid 2,2,2-trifluoroacetic acid], the IC50 in assay [1] (Soy PI lipid substrate) was under 0.5 µM; in assay [2] (Soy PI lipid substrate), 1 to 5 µM.

As to `Cc1c(-c2cccc(C(F)F)c2)oc2c([C@@H](C)Nc3ccccc3C(=O)O)cc(F)cc2c1=O` [Example 83, 2-[[(1R)-1-[2-[3-(Difluoromethyl)phenyl]-6-fluoro-3-methyl-4-oxo-chromen-8-yl]ethyl]amino]benzoic acid 2,2,2-trifluoroacetic acid], the IC50 is under 0.5 µM in assay [1] (Soy PI lipid substrate) and 5 to 10 µM in assay [2] (Soy PI lipid substrate).

Consider `Cc1cc(C(C)Nc2ccccc2C(=O)O)c2oc(-c3cccc(-c4cnn(C)c4)c3)cc(=O)c2c1.O=C(O)C(F)(F)F` (stereo not drawn) [Example 13, 2-[1-[6-Methyl-2-[3-(1-methylpyrazol-4-yl)phenyl]-4-oxo-chromen-8-yl]ethylamino]benzoic acid 2,2,2-trifluoroacetic acid], for which the half-inhibitory concentration (IC50) in assay [1] (Soy PI lipid substrate) is under 0.5 µM; in assay [2] (Soy PI lipid substrate), 1 to 5 µM. The “IC50 WT/IC50 H1047R” value in assay [1] (ratio of biochemical IC50 wild-type to H1047R mutant, Soy PI lipid substrate) is reported as “*For Example 13, IC50 WT/IC50 H1047R = 7.7”.

On to `Cc1cc([C@@H](C)Nc2ccccc2C(=O)O)c2oc(-c3ccccc3C#N)c(C)c(=O)c2c1` [Example 34, 2-[[(1R)-1-[2-(2-Cyanophenyl)-3,6-dimethyl-4-oxo-chromen-8-yl]ethyl]amino]benzoic acid], for which the IC50 in assay [1] (Soy PI lipid substrate) is under 0.5 µM; in assay [2] (Soy PI lipid substrate), over 10 µM.

As to `C[C@@H](Nc1ccccc1C(=O)O)c1cc(F)cc2c(=O)cc(-c3cccc(C(F)F)c3)oc12` [Example 80, 2-[[(1R)-1-[2-[3-(Difluoromethyl)phenyl]-6-fluoro-4-oxo-chromen-8-yl]ethyl]amino]benzoic acid 2,2,2-trifluoroacetic acid], the results for the IC50 in assay [1] (Soy PI lipid substrate) and in assay [2] (Soy PI lipid substrate) were under 0.5 µM and 5 to 10 µM, respectively.

For the compound `C[C@@H](Nc1ccccc1C(=O)O)c1cc(C(F)(F)F)cc2c(=O)cc(-c3ccc(F)cc3F)oc12` [Example 90, 2-[[(1R)-1-[2-(2,4-Difluorophenyl)-4-oxo-6-(trifluoromethyl)-chromen-8-yl]ethyl]amino]benzoic acid], the half-maximal inhibitory concentration (IC50) in assay [1] (Soy PI lipid substrate) is under 0.5 µM; in assay [2] (Soy PI lipid substrate) it was 5 to 10 µM.

Take `Cc1cc(C(C)Nc2ccccc2C(=O)O)c2oc(-c3ccc(C4(C)CC4)cc3)cc(=O)c2c1` (stereo not drawn) [Example 12, 2-[1-[6-Methyl-2-[4-(1-methylcyclopropyl)-phenyl]-4-oxo-chromen-8-yl]ethylamino]benzoic acid 2,2,2-trifluoroacetic acid]: the IC50 in assay [1] (Soy PI lipid substrate) was in the range of 0.5 to 1 µM; in assay [2] (Soy PI lipid substrate) it was 5 to 10 µM.

With `Cc1c(-c2cccc(C#N)c2)oc2c([C@@H](C)Nc3ccc(Cl)nc3C(=O)O)cc(C(F)(F)F)cc2c1=O` [Example 100, 6-Chloro-3-[[(1R)-1-[2-(3-cyanophenyl)-3-methyl-4-oxo-6-(trifluoromethyl)-chromen-8-yl]ethyl]amino]pyridine-2-carboxylic acid], the IC50 was under 0.5 µM in assay [1] (Soy PI lipid substrate) and 0.5 to 1 µM in assay [2] (Soy PI lipid substrate).

Consider `Cc1cc(C(C)Nc2ccccc2C(=O)O)c2oc(-c3cccc(C(C)(C)C#N)c3)cc(=O)c2c1` (single isomer, unassigned; isomer 2) [Example 5, 2-[1-[2-[3-(1-Cyano-1-methyl-ethyl)phenyl]-6-methyl-4-oxo-chromen-8-yl]ethylamino]benzoic acid, Isomer 2], for which the results for the IC50 in assay [1] (Soy PI lipid substrate) and in assay [2] (Soy PI lipid substrate) were under 0.5 µM and over 10 µM, respectively.

For `Cc1cc([C@@H](C)Nc2ccccc2C(=O)O)c2oc(-c3ccc(F)cc3)cc(=O)c2c1` [Example 19, 2-[[(1R)-1-[2-(4-Fluorophenyl)-6-methyl-4-oxo-chromen-8-yl]ethyl]amino]benzoic acid], the IC50 was under 0.5 µM in assay [1] (setting [3]) and 1 to 5 µM in assay [2] (setting [3]).

In the case of `Cc1cc(C(C)Nc2cccc(F)c2C(=O)O)c2oc(-c3ccccc3F)cc(=O)c2c1` (stereo not drawn) [Example 97, 2-Fluoro-6-[1-[2-(2-fluorophenyl)-6-methyl-4-oxo-chromen-8-yl]ethylamino]benzoic acid 2,2,2-trifluoroacetic acid], the IC50 in assay [1] (Soy PI lipid substrate) is under 0.5 µM; in assay [2] (Soy PI lipid substrate) it was 1 to 5 µM.
